Experimental data reported in patent US12691097B2, “Methods and compositions for treating polyomavirus” (Brown University, priority 2022, dated 2026).
“Also recorded” adds a separate entry of the source.

Columns and labels:
JCPyV [1] = assay: initial JCPyV infection in SVG-A glial cells, indirect immunofluorescent quantification of viral proteins; format: cell-based, JC polyomavirus; conditions: pre-treatment
JCPyV [2] = assay: initial JCPyV infection in primary normal human astrocytes (NHA), indirect immunofluorescent quantification of viral proteins; format: cell-based, JC polyomavirus; conditions: pre-treatment
[3] = cytotoxicity in SVG-A cells; format: cell-based; conditions: human, read-out: 50% cytotoxic concentration (CC50)
[4] = cytotoxicity in NHA cells; format: cell-based; conditions: human, read-out: 50% cytotoxic concentration (CC50)
JCPyV [5] = assay: long-term cell-to-cell spread of JCPyV; format: cell-based, JC polyomavirus; conditions: introduced after establishment of a productive infection
Description: SI50 values are important metrics in drug discovery, and an SI50 greater than 10 is commonly considered to be an important starting point in drug development.

ERK1/2 = assay: endogenous ERK phosphorylation, with or without PMA; format: cell-based
JCPyV [6] = assay: rescue of JCPyV infection by PMA cotreatment in SVG-A cells; format: cell-based, JC polyomavirus; conditions: SVG-A cells cotreated with PMA and GW-5074
[7] = system: human and simian polyomaviruses; assay: initial infection by human and simian polyomaviruses (FIG. 4); format: cell-based
JCPyV [8] = assay: JCPyV infection, cells not stated (FIG. 1, FIG. 2); format: cell-based, JC polyomavirus
PML = assay: administration to patients with or at risk of PML (Examples 1-6); format: in vivo
Description: The patient's difficulty in walking is decreased. […] The patient's facial drooping is decreased. […] The patient's loss of vision is decreased. […] The patient's seizures are decreased. […].

JCPyV [9] = system: JCPyV; parameters: unit not given beside the values; conditions: cells not given; cited from earlier work
[10] = patient with early signs of PML

O=C1Nc2ccc(I)cc2C1=Cc1cc(Br)c(O)c(Br)c1 [GW-5074, 3-(3,5-dibromo-4-hydroxybenzylidene)-5-iodoindolin-2-one]
IC50 (JCPyV [1]; JC polyomavirus, SVG-A cells, one round of productive infection, read-out: 50% inhibitory concentration (IC50)): 6.8 µM
initial JCPyV infection (JCPyV [1]; SVG-A glial cells, non-toxic concentrations): potently reduced initial JCPyV infection
IC50 (JCPyV [2]; JC polyomavirus, Astrocyte, NHA cells, one round of productive infection, read-out: 50% inhibitory concentration (IC50)): 0.84 µM
initial JCPyV infection (JCPyV [2]; primary normal human astrocytes, non-toxic concentrations): reduction of initial infection; also recorded: potently reduced initial JCPyV infection
CC50 [3]: > 100 µM
CC50 [4]: > 20 µM
long-term cell-to-cell spread of JCPyV (JCPyV [5]): inhibition of viral spread; also recorded: inhibited long-term cell-to-cell spread of JCPyV
endogenous ERK phosphorylation (ERK1/2): inhibits endogenous ERK1/2 phosphorylation; also recorded: inhibited endogenous ERK phosphorylation
restoration of ERK activity (ERK1/2; coincubation with PKC agonist PMA): ERK activity could not be restored
rescue of JCPyV infection (JCPyV [6]): JCPyV infection could not be rescued
initial infection by human and simian polyomaviruses [7]: reduction of initial infection
initial JCPyV infection (JCPyV [8]; FIG. 1, cells not stated): reduction in initial JCPyV infection
protective effect (JCPyV [8]; FIG. 2): protective effect
development of PML (PML; patient at risk for the development of PML): does not develop PML
difficulty in walking (PML; [10]): decreased
facial drooping (PML; [10]): decreased
loss of vision (PML; [10]): decreased
loss of vision (PML; patient with mid-stage PML): decreased
seizures (PML; patient with mid-stage PML): decreased

Cc1ccc(C2Nc3ccccc3C(=O)N2c2ccccc2)s1 (stereo not shown) [Retro-2^cycl]
SI50 of established compounds with anti-JCPyV activity (JCPyV [9]): 7.4

CN(C)CCCN1c2ccccc2Sc2ccc(Cl)cc21 [chlorpromazine]
SI50 of established compounds with anti-JCPyV activity (JCPyV [9]): 2.0

OC(c1cc(C(F)(F)F)nc2c(C(F)(F)F)cccc12)C1CCCCN1 (stereo not shown) [mefloquine]
SI50 of established compounds with anti-JCPyV activity (JCPyV [9]): 4.0
